Measurements published in patent publication US20250332300A1 (priority 2024, published 2025).
Structures can show the parent of a compound that is named as a salt. Where two headings read alike, the source gives them in different places. Starred links: 1 amine or outer side, 2 acyl side, 3 side chain; linkers in the order of their positions; H or OH if unused. Positions of bridges follow the written chain, without caps; N, C: chain ends. Non-standard residues stand in square brackets, D forms with d. Residues, ends and D or L forms follow the SMILES beside them. Trp(5-OH) = N[C@@H](Cc1c[nH]c2ccc(O)cc12)C(=O)O; NMePhe(4-F) = CN[C@@H](Cc1ccc(F)cc1)C(=O)O; NMehPhe = CN[C@@H](CCc1ccccc1)C(=O)O; Aad = N[C@@H](CCCC(=O)O)C(=O)O; Gly(cPr) = N[C@H](C(=O)O)C1CC1; NMeD = CN[C@@H](CC(=O)O)C(=O)O; NMehCys = CN[C@@H](CCS)C(=O)O; NMeK = CN[C@@H](CCCCN)C(=O)O; NMeDap = CN[C@@H](CN)C(=O)O; 3Amb = NCc1cccc(C(=O)O)c1; NMeC = CN[C@@H](CS)C(=O)O; NMeS = CN[C@@H](CO)C(=O)O; hCys = N[C@@H](CCS)C(=O)O; Dap = NC[C@H](N)C(=O)O; X5 = O=C(C[*:2])[*:1]

What was measured:
Type in all cases: binding
human HER2 (23-652) [1] = molecular target: T1, human HER2 (23-652) (Homo sapiens, UniProt P04626); assay: TR-FRET competition assay for peptide potency, human HER2; parameters: towards human HER2 (23-652) and mouse HER2 (23-653); made in house; host or cells: mammalian cells
human HER2 (23-652) [2] = molecular target: T1, human HER2 (23-652); assay: Surface plasmon resonance (SPR) for assessment of peptide affinity, human HER2; parameters: towards human HER2 (23-652) and mouse HER2 (23-653); made in house
Summary of the method: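 Binding kinetics fitted from sensorgrams with 280 s peptide association then 3000 s dissociation (30 uL/min), using HER2 (23-652) either directly immobilized (SA/CM5) or anti-Fc-captured; 3 M magnesium chloride used for regeneration.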

mouse HER2 (23-653) [3] = molecular target: T2, mouse HER2 (23-653) (Mus musculus, UniProt P70424); assay: Surface plasmon resonance (SPR) for assessment of peptide affinity, mouse HER2; parameters: mouse HER2 (23-653) using a Cy5 labeled peptide as a probe; made in house; conditions: SPR, mouse HER2 extracellular domain, 25° C., 1:1 binding model; read-out: moHER2-SPR-ONC KD
From the text: Each protein was immobilized either onto a SA sensorchip (Cytiva, BR-1005-31) or CM5 sensorchip (Cytiva, BR-1005-30) to a density of 800-2000 RU.

mouse HER2 (23-653) [4] = molecular target: T2, mouse HER2 (23-653); assay: TR-FRET competition assay for peptide potency, mouse HER2; parameters: mouse HER2 (23-653) using a Cy5 labeled peptide as a probe; made in house; host or cells: mammalian cells; conditions: TR-FRET competition with Cy5 labeled peptide probe, 0.1 nM mouse HER2, 24 h incubation; read-out: moHER2 TR-FRET IC50
[5] = SPR, human HER2 extracellular domain, 25° C., 1:1 binding model, read-out: huHER2-SPR-ONC KD
[6] = huHER2 TR-FRET IC50, TR-FRET competition with Cy5 labeled peptide probe, 0.1 nM human HER2, 24 h incubation

Row | Structure (SMILES) | IC50 (human HER2 (23-652) [1]; read-out: huHER2 TR-FRET IC50) | Kd (human HER2 (23-652) [2]; [5]) | Kd (mouse HER2 (23-653) [3]) | IC50 (mouse HER2 (23-653) [4]) | IC50 (human HER2 (23-652) [1]; [6]) | Kd (human HER2 (23-652) [2])
1 | CC(=O)N[C@H]1CCC(=O)NC[C@@H](C(=O)N(C)[C@@H](Cc2ccc(F)cc2)C(N)=O)N(C)C(=O)[C@H](C2CC2)NC(=O)[C@H](Cc2c[nH]c3ccccc23)NC(=O)[C@H](Cc2c[nH]c3ccc(O)cc23)NC(=O)[C@H](CO)N(C)C(=O)[C@H](CCc2ccccc2)N(C)C(=O)[C@H](CCCC(=O)O)NC(=O)[C@H](Cc2ccc(O)cc2)NC1=O [Example A27, 4-((2S,5S,8S,11S,14S,17S,20S,23S,29S)-17-((1H-indol-3-yl)methyl)-29-acetamido-23-(((S)-1-amino-3-(4-fluorophenyl)-1-oxopropan-2-yl)(methyl)carbamoyl)-20-cyclopropyl-14-((5-hydroxy-1H-indol-3-yl)methyl)-2-(4-hydroxybenzyl)-11-(hydroxymethyl)-7,10,22-trimethyl-3,6,9,12,15,18,21,26,30-nonaoxo-8-phenethyl-1,4,7,10,13,16,19,22,25-nonaazacyclotriacontan-5-yl)butanoic acid] (Ac-EY[Aad][NMehPhe][NMeS][Trp(5-OH)]W[Gly(cPr)][NMeDap][NMePhe(4-F)]-NH2; lactam 1-9) | 391 nM | 248 nM | 210 nM | 627 nM |  | 
2 | CC(=O)NCCCC[C@H]1C(=O)N[C@@H](Cc2c[nH]c3ccc(O)cc23)C(=O)N[C@@H](Cc2c[nH]c3ccccc23)C(=O)N[C@@H](C2CC2)C(=O)N(C)[C@H](C(=O)N(C)[C@@H](Cc2ccc(F)cc2)C(=O)N[C@@H](CCCCNC(=O)CCC(C(=O)O)N2CCN(CC(=O)O)CCN(CC(=O)O)CC2)C(N)=O)CNC(=O)CCC[C@H](NC(C)=O)C(=O)N[C@@H](Cc2ccc(O)cc2)C(=O)N[C@@H](CO)C(=O)N(C)[C@@H](CCc2ccccc2)C(=O)N1C (stereo partly drawn) [Example B13] | < 0.1 nM | < 0.1 nM | < 0.1 nM | < 0.1 nM |  | 
3 | CC(=O)NCCCC[C@H]1C(=O)N[C@@H](Cc2c[nH]c3ccc(O)cc23)C(=O)N[C@@H](Cc2c[nH]c3ccccc23)C(=O)N[C@@H](C2CC2)C(=O)N(C)[C@H](C(=O)N(C)[C@@H](Cc2ccc(F)cc2)C(N)=O)CCSSCC[C@H](N)C(=O)N[C@@H](Cc2ccc(O)cc2)C(=O)N[C@@H](CO)C(=O)N(C)[C@@H](CCc2ccccc2)C(=O)N1C [Example A55, (5S,8S,11S,14S,17S,20S,23S,26S,29S)-11-((1H-indol-3-yl)methyl)-17-(4-acetamidobutyl)-29-amino-N-((S)-1-amino-3-(4-fluorophenyl)-1-oxopropan-2-y1)-8-cyclopropyl-14-((5-hydroxy-1H-indol-3-yl)methyl)-26-(4-hydroxybenzyl)-23-(hydroxymethyl)-N,6,18,21-tetramethyl-7,10,13,16,19,22,25,28-octaoxo-20-phenethyl-1,2-dithia-6,9,12,15,18,21,24,27-octaazacyclohentriacontane-5-carboxamide TFA salt] (H-[hCys]YS[NMehPhe][NMeK](Ac)[Trp(5-OH)]W[Gly(cPr)][NMehCys][NMePhe(4-F)]-NH2; disulfide 1-9) | 97 nM | 178 nM | 148 nM | 287 nM |  | 
4 | CN1C(=O)[C@H](CO)NC(=O)[C@H](Cc2ccc(O)cc2)NC(=O)[C@@H](N)CCCC(=O)NC[C@@H](C(=O)N(C)[C@@H](Cc2ccc(F)cc2)C(N)=O)N(C)C(=O)[C@H](C2CC2)NC(=O)[C@H](Cc2c[nH]c3ccccc23)NC(=O)[C@H](Cc2c[nH]c3ccc(O)cc23)NC(=O)[C@H](CO)N(C)C(=O)[C@@H]1CCc1ccccc1 [Example A36, (3S,6S,9S,12S,15S,18S,21S,24S,27S)-9-((1H-indol-3-yl)methyl)-27-amino-N-((S)-1-amino-3-(4-fluorophenyl)-1-oxopropan-2-yl)-6-cyclopropyl-12-((5-hydroxy-1H-indol-3-yl)methyl)-24-(4-hydroxybenzyl)-15,21-bis(hydroxymethyl)-N,4,16,19-tetramethyl-5,8,11,14,17,20,23,26,31-nonaoxo-18-phenethyl-1,4,7,10,13,16,19,22,25-nonaazacyclohentriacontane-3-carboxamide TFA salt] (H-[Aad]YS[NMehPhe][NMeS][Trp(5-OH)]W[Gly(cPr)][NMeDap][NMePhe(4-F)]-NH2; lactam 1-9) |  |  | 34 nM | 102 nM | 52 nM | 38 nM
5 | CN1C(=O)[C@H](CO)NC(=O)[C@H](Cc2ccc(O)cc2)NC(=O)[C@@H](N)CNC(=O)CSC[C@@H](C(=O)N(C)[C@@H](Cc2ccc(F)cc2)C(N)=O)N(C)C(=O)[C@H](C2CC2)NC(=O)[C@H](Cc2c[nH]c3ccccc23)NC(=O)[C@H](Cc2c[nH]c3ccc(O)cc23)NC(=O)[C@H](CO)N(C)C(=O)[C@@H]1CCc1ccccc1 [Example A53, (3R,6S,9S,12S,15S,18S,21S,24S,27S)-9-((1H-indol-3-yl)methyl)-27-amino-N—((S)-1-amino-3-(4-fluorophenyl)-1-oxopropan-2-yl)-6-cyclopropyl-12-((5-hydroxy-1H-indol-3-yl)methyl)-24-(4-hydroxybenzyl)-15,21-bis(hydroxymethyl)-N,4,16,19-tetramethyl-5,8,11,14,17,20,23,26,30-nonaoxo-18-phenethyl-1-thia-4,7,10,13,16,19,22,25,29-nonaazacyclohentriacontane-3-carboxamide TFA salt] (H-[Dap]YS[NMehPhe][NMeS][Trp(5-OH)]W[Gly(cPr)][NMeC][NMePhe(4-F)]-NH2; linker 1-9 via X5) |  |  | 154 nM | 466 nM | 163 nM | 132 nM
6 | CN1C(=O)[C@H](CO)NC(=O)[C@H](Cc2ccc(O)cc2)NC(=O)c2cccc(c2)CNC(=O)C[C@@H](C(=O)N(C)[C@@H](Cc2ccc(F)cc2)C(N)=O)N(C)C(=O)[C@H](C2CC2)NC(=O)[C@H](Cc2c[nH]c3ccccc23)NC(=O)[C@H](Cc2c[nH]c3ccc(O)cc23)NC(=O)[C@H](CO)N(C)C(=O)[C@@H]1CCc1ccccc1 [Example A24, (4S,7S,10S,13S,16S,19S,22S,25S)-19-((1H-indol-3-yl)methyl)-N-((S)-1-amino-3-(4-fluorophenyl)-1-oxopropan-2-yl)-22-cyclopropyl-16-((5-hydroxy-1H-indol-3-yl)methyl)-4-(4-hydroxybenzyl)-7,13-bis(hydroxymethyl)-N,9,12,24-tetramethyl-2,5,8,11,14,17,20,23,27-nonaoxo-10-phenethyl-3,6,9,12,15,18,21,24,28-nonaaza-1(1,3)-benzenacyclononacosaphane-25-carboxamide] ([3Amb]YS[NMehPhe][NMeS][Trp(5-OH)]W[Gly(cPr)][NMeD][NMePhe(4-F)]-NH2; lactam N-9) | > 1000 nM | 2810 nM | 5080 nM | > 1000 nM |  | 
